Where two headings read alike, the source gives them in different places.
Tests used:
gal3 [1] = target: T1, gal3 (Homo sapiens, UniProt P17931); assay: Surface plasmon resonance (Biacore) kinetics and affinity for gal3; type: binding; conditions: SPR, biotinylated gal3 on chip
T1 construct: made in house
Method: The binding kinetics and affinity of a few carbohydrates for gal3 were measured in Surface Plasmon Resonance (SPR)-based binding assays using a Biacore™ T200 instrument (GE Healthcare). Biotinylated gal3 was attached to Biacore Sensor Chip SA (GE Healthcare) according to the instructions. For this purpose, biotinlyated gal3 was diluted into HBS-EP+ (GE Heathcare) to a concentration of 1 μg/mL and captured onto the streptavidin surface to a final level of 1750 RU. A reference surface was prepared with biotin captured onto the streptavidin. […] The binding response of small carbohydrate ligands were measured in Resonance units (RU) in real time at 10 HZ. These carbohydrates were injected for 30 seconds at 50 μL/min, and 30 seconds of dissociation data were collected. […] Raw sensorgram data were reference subtracted and blank subtracted prior to kinetic and affinity analysis. Biacore™ T200 Evaluation software was used for Steady-state affinity analysis and kinetic analysis.

Jurkat cells = assay: Gal3-mediated apoptosis of Jurkat cells; type: cell-based, human
From the text: (§1) Jurkat cells were used for gal3-mediated apoptosis at various concentration of gal3. To investigate gal3-mediated apoptosis of human CD8^+ cells, peripheral blood mononuclear cells (PBMCs) were isolated from chronic leukemia patients using Ficoll-paque density gradient method (39) followed by negative selection of CD8^+ cells with a cocktail of antibodies using a kit (BD Biosciences, MD). The presence of CD8^+ cells in the purified fraction was confirmed by staining cells with anti-CD8 antibody.

[2] = test system: activated pmel T cells on B16 melanoma cells; assay: B16 melanoma cell-associated apoptosis of activated pmel T cells; type: cell-based, mouse; conditions: B16 monolayer about 24 h; untreated about 53%; TFD100 3.5 nM, lactose 50 μM
Method: To investigate if tumor-associated gal3 can induce tumor specific CD8 T cells, we used B16 melanoma-specific transgenic D90.1 CD8 T cells (pmel T cells) (40). After harvesting T cells from mouse spleen, cells were activated with a peptide (40), mixed with a monolayer of B16 melanoma cells and apoptosis was measured by Annexin V binding after gating with anti-CD8 antibodies.

human CD8+ T cells = assay: Gal3-mediated apoptosis of human CD8+ T cells (annexin V); type: cell-based
From the text: as §1

MOLT-4 cells = assay: Gal3-mediated apoptosis of MOLT-4 cells (annexin V); type: cell-based, human
gal4 = target: T2, gal4 (Homo sapiens, UniProt P56470); assay: Solid phase binding-inhibition assay: gal4 binding to asialofetuin; conditions: read-out: I50 value
T2 sequence (P56470 1-323): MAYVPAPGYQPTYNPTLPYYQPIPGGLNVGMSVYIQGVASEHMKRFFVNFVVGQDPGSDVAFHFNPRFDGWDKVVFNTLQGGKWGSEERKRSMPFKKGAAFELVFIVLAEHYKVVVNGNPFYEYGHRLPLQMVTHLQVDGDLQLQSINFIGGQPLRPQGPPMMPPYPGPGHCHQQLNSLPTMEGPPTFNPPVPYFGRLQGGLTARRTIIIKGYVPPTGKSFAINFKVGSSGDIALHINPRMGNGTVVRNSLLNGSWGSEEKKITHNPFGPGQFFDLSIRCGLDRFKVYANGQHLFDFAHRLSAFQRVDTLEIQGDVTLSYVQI

[3] = target: gal9N (N-terminal of gal9) (UniProt O00182); assay: Solid phase binding-inhibition assay: gal9N binding to asialofetuin; conditions: read-out: I50 value
gal3 [4] = target: T1, gal3; assay: Solid phase binding-inhibition assay: gal3 binding to asialofetuin; conditions: for IC50: read-out: I50 value (converted)
Method: Briefly, asialofetuin (0.5 μg/100 μl/well) in 0.1 M Na2CO3/0.02% NaN3 (pH 9.6) was adsorbed onto the wells of microtiter plates (Immulon; Dynatech Laboratories, Chantilly, Va.) at 37° C. for 3 h, and the bound glycoprotein was fixed with 2% formaldehyde in phosphate-buffered saline (PBS, 10 mM phosphate, 140 mM NaCl, pH 7.5) at 37° C. for 30 min. The plates were washed three times with PBS (azide-free)/0.05% Tween 20, and incubated with the gal3-biotin conjugate (10 ng/100 μl/well for binding assays) or with preincubated mixture of equal volume of conjugate and varying concentrations of test ligands (for binding-inhibition assays). After incubation for 1 h at 4° C., the plates were washed with ice-cold azide-free PBS-Tween 20, and the bound conjugate was allowed to interact with peroxidase labeled streptavidin (0.05 μg/100 μl well) in azide-free PBS-Tween for 1 h at 4° C. The plate was washed with ice-cold azide free PBS-Tween and the bound peroxidase activity was assayed with peroxidase substrate diammonium 2,2′-azinobis(3-ethylbenzothiazoline-6-sulfonate) (KPL, Rockville, Md.) (37). […] After incubation for 2 h on ice, the mix was dialyzed with PBS and purified by affinity chromatography on lactosyl-Sepharose (37). The purified gal3-biotin conjugate was dialyzed with PBS and stored in 1% BSA-50% glycerol at −20° C. until further use. […] O-Glycosidase treatment removes TF-disaccharide from protein (cleaves GalNAc-Ser/Thr linkage).

pmel T cells = assay: Recombinant gal3-mediated apoptosis of tumor-specific CD8+ (pmel) T cells; type: cell-based, mouse
HUVEC = assay: In vitro angiogenesis (tube formation) of HUVEC; type: cell-based, human; conditions: recombinant gal3 5 μM, number of branching
Method: After 5 h, the microvessel formation was analyzed under phase contrast microscope at the 10× magnification. For quantitation of tube formation, the number of branching was counted in six areas (each […]) of each well and an average value was taken.

T1 sequence (P17931 whole entry): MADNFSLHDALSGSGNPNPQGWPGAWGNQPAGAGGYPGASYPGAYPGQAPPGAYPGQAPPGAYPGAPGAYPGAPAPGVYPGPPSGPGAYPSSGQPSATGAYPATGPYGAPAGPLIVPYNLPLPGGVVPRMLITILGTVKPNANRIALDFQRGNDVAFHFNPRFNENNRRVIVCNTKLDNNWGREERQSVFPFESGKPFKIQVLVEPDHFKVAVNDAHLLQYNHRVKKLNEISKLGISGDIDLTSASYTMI

CC(=O)N[C@H]1C(O)O[C@H](CO)[C@@H](O[C@@H]2O[C@H](CO)[C@H](O)[C@H](O)[C@H]2O)[C@@H]1O (some centres unmarked) [N-acetyllactosamine]
Kd (gal3 [1]): 25 µM

OC[C@H]1O[C@@H](O[C@H]2[C@H](O)[C@@H](O)C(O)O[C@@H]2CO)[C@H](O)[C@@H](O)[C@H]1O (some centres unmarked) [Lactose]
inhibition at 50 µM (Jurkat cells; Homo sapiens, Jurkat): ~30%
apoptosis of T cells reduced to [2]: 39%
inhibition at 50 µM (human CD8+ T cells; Homo sapiens, T-cell): ~67%
inhibition at 50 µM (MOLT-4 cells; Homo sapiens, MOLT-4): ~20%
IC50 (gal4): 10000 µM
IC50 [3]: 100 µM

CC(=O)NC1C(O)OC(CO)C(O)C1OC1OC(CO)C(O)C(O)C1O (centres unmarked) [TFD, Galβ1,3GalNAc]
RIA, relative inhibitory activity compared to lactose (taken as 1) (gal3 [4]; from I50 in μg/ml, Table 1): 0.47
IC50 (gal3 [4]; gal3 binding to asialofetuin): 200 µM
IC50 (gal3 [4]; inhibition of gal3 binding to asialofetuin, Table 1): 151 µM
Kd (gal3 [1]): 636 µM

gal3: purified recombinant galectin-3, used as inducer of angiogenesis and T cell apoptosis
gal3-mediated apoptosis (Jurkat cells; gal3 5 μM): ~34%
cell death of non-activated CD8+ T cells (pmel T cells; gal3 up to 15 μM, same as cells alone): ~22%
apoptosis of activated CD8+ T cells (pmel T cells; recombinant gal3 5 μM, CD8 alone ~61%): ~76%
enhancement of tube formation (HUVEC): ~25%
cells death (human CD8+ T cells; gal3 5 μM, flow cytometry): ~54%
cells undergoing apoptosis (MOLT-4 cells; gal3 5 μM, annexin V): ~50%

— US9180175B2, “Methods of use for a natural Thomsen-Friedenreich disaccharide compound” (UNIVERSITY OF MARYLAND, BALTIMORE, priority 2011, dated 2015)
